Reference: ChEMBL document CHEMBL3608207, “Synthesis, characterization, evaluation and molecular dynamics studies of 5, 6-diphenyl-1,2,4-triazin-3(2H)-one derivatives bearing 5-substituted 1,3,4-oxadiazole as potential anti-inflammatory and analgesic agents” (Eur J Med Chem, 2015)

Experiments:
Rattus norvegicus [1] = assay: Anti-inflammatory activity in rat model of acute inflammation assessed as inhibition of carrageenan-induced paw oedema dosed at equimolar oral dose relative to 10 mg/kg, po indomethacin dosed 1 hr before carrageenan injection and measured 5 hrs after carrageenan injection relative to 10 mg/kg, po indomethacin; format: functional
Rattus norvegicus [2] = assay: Anti-inflammatory activity in rat Freund's adjuvant induced arthritis model of chronic inflammation assessed as inhibition of right hind paw swelling at equimolar oral dose relative to 10 mg/kg, po indomethacin dosed after 14 days from day of adjuvant injection until day 21 and measured on day 12; format: functional
Rattus norvegicus [3] = assay: Anti-inflammatory activity in rat model of acute inflammation assessed as inhibition of carrageenan-induced paw oedema dosed at equimolar oral dose relative to 10 mg/kg, po indomethacin dosed 1 hr before carrageenan injection and measured 6 hrs after carrageenan injection; format: functional
Rattus norvegicus [4] = assay: Toxicity in healthy albino rat assessed as induction of lethargy up to 500 mg/kg, po; format: organism-based; conditions: in vivo
Rattus norvegicus [5] = assay: Anti-inflammatory activity in rat Freund's adjuvant induced arthritis model of chronic inflammation assessed as inhibition of right hind paw swelling at equimolar oral dose relative to 10 mg/kg, po indomethacin dosed after 14 days from day of adjuvant injection until day 21 and measured on day 18; format: functional
Rattus norvegicus [6] = assay: Anti-inflammatory activity in rat Freund's adjuvant induced arthritis model of chronic inflammation assessed as inhibition of right hind paw swelling at equimolar oral dose relative to 10 mg/kg, po indomethacin dosed after 14 days from day of adjuvant injection until day 21 and measured on day 3; format: functional
Rattus norvegicus [7] = assay: Anti-inflammatory activity in rat assessed as inhibition of arachidonic acid-induced paw edema dosed at equimolar oral dose relative to 10 mg/kg, po indomethacin dosed 30 mins before arachidonic acid injection and measured 1 hr after arachidonic acid injection; format: functional
Rattus norvegicus [8] = assay: (§1) Hepato-toxicity in rat Freund's adjuvant induced arthritis model of chronic inflammation assessed as assessed as alkaline phosphatase level at equimolar oral dose relative to 10 mg/kg, po indomethacin dosed after 14 days from day of adjuvant injection until day 21 and measured on day 21 (reference value: 17.82 +/- 1.2 U); format: organism-based; conditions: in vivo, 336 h
Rattus norvegicus [9] = assay: as §1, with “Renal toxicity” for “Hepato-toxicity”, “blood urea nitrogen” for “alkaline phosphatase”, “23.48” for “17.82”, “1.8 mg/dL)” for “1.2 U)”; format: organism-based; conditions: in vivo, 336 h
Rattus norvegicus [10] = assay: Anti-inflammatory activity in rat model of acute inflammation assessed as inhibition of carrageenan-induced paw oedema dosed at equimolar oral dose relative to 10 mg/kg, po indomethacin dosed 1 hr before carrageenan injection and measured 3 hrs after carrageenan injection; format: functional
[11] = In-vitro anti-inflammatory activity assessed as inhibition of denaturation of bovine serum albumin at equimolar dose relative to 10 mg indomethacin; format: functional
[12] = Octanol/water partition coefficient, log P of the compound by shake flask method; format: physicochemical
Rattus norvegicus [13] = assay: Anti-inflammatory activity in rat model of acute inflammation assessed as inhibition of carrageenan-induced paw oedema dosed at equimolar oral dose relative to 10 mg/kg, po indomethacin dosed 1 hr before carrageenan injection and measured 1 hr after carrageenan injection; format: functional
Rattus norvegicus [14] = assay: Toxicity in healthy albino rat assessed as induction of coma up to 500 mg/kg, po; format: organism-based; conditions: in vivo
[15] = target: T1, Prostaglandin G/H synthase 1 (Ovis aries, UniProt P05979); assay: Inhibition of ovine COX1 by oxidized TMPD detection based colorimetric assay
T1 sequence (P05979 whole entry): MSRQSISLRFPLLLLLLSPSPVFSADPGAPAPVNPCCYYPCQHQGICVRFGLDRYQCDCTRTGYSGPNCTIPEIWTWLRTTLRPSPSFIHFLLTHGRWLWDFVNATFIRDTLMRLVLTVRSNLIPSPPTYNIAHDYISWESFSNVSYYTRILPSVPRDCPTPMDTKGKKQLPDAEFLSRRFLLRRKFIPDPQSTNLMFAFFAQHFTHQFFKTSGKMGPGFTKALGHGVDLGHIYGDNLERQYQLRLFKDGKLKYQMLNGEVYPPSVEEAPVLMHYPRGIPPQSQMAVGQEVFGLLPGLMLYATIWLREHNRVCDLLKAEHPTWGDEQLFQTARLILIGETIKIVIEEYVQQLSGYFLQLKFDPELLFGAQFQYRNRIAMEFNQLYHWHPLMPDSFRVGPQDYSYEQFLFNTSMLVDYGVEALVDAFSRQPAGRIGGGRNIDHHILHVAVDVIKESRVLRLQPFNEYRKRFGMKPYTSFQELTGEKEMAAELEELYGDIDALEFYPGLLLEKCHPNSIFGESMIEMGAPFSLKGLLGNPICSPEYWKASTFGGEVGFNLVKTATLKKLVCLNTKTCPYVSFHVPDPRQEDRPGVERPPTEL

Mus musculus [16] = assay: Analgesic activity in Swiss albino mouse assessed as reduction in formalin-induced paw licking by measuring time spent on licking during phase-2 at equimolar oral dose relative to 10 mg/kg, po indomethacin dosed 1 hr before formalin challenge and measured 30 mins after formalin injection; format: functional
Rattus norvegicus [17] = assay: Anti-inflammatory activity in rat Freund's adjuvant induced arthritis model of chronic inflammation assessed as inhibition of right hind paw swelling at equimolar oral dose relative to 10 mg/kg, po indomethacin dosed after 14 days from day of adjuvant injection until day 21 and measured on day 21; format: functional
Rattus norvegicus [18] = assay: Toxicity in healthy albino rat assessed as induction of convulsion up to 500 mg/kg, po; format: organism-based; conditions: in vivo
Mus musculus [19] = assay: Analgesic activity in Swiss albino mouse assessed as reduction in number of writhing episodes at equimolar oral dose relative to 10 mg/kg, po indomethacin measured 30 mins following acetic acid injection; format: functional
Rattus norvegicus [20] = assay: Toxicity in healthy albino rat assessed as induction of mortality at 500 mg/kg, po measured after 14 days; format: organism-based; conditions: in vivo, 336 h
Rattus norvegicus [21] = assay: as §1, with “SGOT” for “alkaline phosphatase”, “92.48” for “17.82”, “7.8 U/mL)” for “1.2 U)”; format: organism-based; conditions: in vivo, 336 h
Rattus norvegicus [22] = assay: Anti-inflammatory activity in rat model of sub-chronic inflammation assessed as inhibition of cotton pellet-induced granuloma by measuring weight of granulation dosed once daily at equimolar oral dose relative to 10 mg/kg, po indomethacin for seven consecutive days from day of cotton pellet insertion (94.13 +/- 8.1 mg); format: functional
Rattus norvegicus [23] = assay: Toxicity in healthy albino rat assessed as induction of salivation up to 500 mg/kg, po; format: organism-based; conditions: in vivo
Rattus norvegicus [24] = assay: Anti-inflammatory activity in rat Freund's adjuvant induced arthritis model of chronic inflammation assessed as inhibition of right hind paw swelling at equimolar oral dose relative to 10 mg/kg, po indomethacin dosed after 14 days from day of adjuvant injection until day 21 and measured on day 6; format: functional
Rattus norvegicus [25] = assay: Toxicity in healthy albino rat assessed as induction of tremors up to 500 mg/kg, po; format: organism-based; conditions: in vivo
Rattus norvegicus [26] = assay: as §1, with “Renal toxicity” for “Hepato-toxicity”, “total albumin” for “alkaline phosphatase”, “1.77” for “17.82”, “0.12 g/dL)” for “1.2 U)”; format: organism-based; conditions: in vivo, 336 h
Rattus norvegicus [27] = assay: Toxicity in healthy albino rat assessed as induction of changes in autonomic or behavioural responses up to 500 mg/kg, po; format: organism-based; conditions: in vivo
Rattus norvegicus [28] = assay: Anti-inflammatory activity in rat model of acute inflammation assessed as inhibition of carrageenan-induced paw oedema dosed at equimolar oral dose relative to 10 mg/kg, po indomethacin dosed 1 hr before carrageenan injection and measured 2 hrs after carrageenan injection; format: functional
Rattus norvegicus [29] = assay: Anti-inflammatory activity in rat model of acute inflammation assessed as inhibition of carrageenan-induced paw oedema dosed at equimolar oral dose relative to 10 mg/kg, po indomethacin dosed 1 hr before carrageenan injection and measured 5 hrs after carrageenan injection; format: functional

| Structure (SMILES) | inhibition (INH) (Rattus norvegicus [1]) | inhibition (INH) (Rattus norvegicus [2]) | inhibition (INH) (Rattus norvegicus [3]) | Activity (Rattus norvegicus [4]) | inhibition (INH) (Rattus norvegicus [5]) | inhibition (INH) (Rattus norvegicus [6]) | inhibition (INH) (Rattus norvegicus [7]) | Activity (Rattus norvegicus [8]) | Activity (Rattus norvegicus [9]) | inhibition (INH) (Rattus norvegicus [10]) | inhibition [11] | logP [12] | inhibition (INH) (Rattus norvegicus [13]) | Activity (Rattus norvegicus [14]) | IC50 [15] | inhibition (INH) (Mus musculus [16]) | inhibition (INH) (Rattus norvegicus [17]) | Activity (Rattus norvegicus [18]) | inhibition (INH) (Mus musculus [19]) | Activity (Rattus norvegicus [20]) | other results |
| --- | --- | --- | --- | --- | --- | --- | --- | --- | --- | --- | --- | --- | --- | --- | --- | --- | --- | --- | --- | --- | --- |
| Nc1ccc(-c2nnc(Cn3nc(-c4ccccc4)c(-c4ccccc4)nc3=O)o2)cc1 | 93.92% | 45.8% | 55.96% | Non-toxic | 49.23% | 31.14% | 16.45% | 20.64 U | 33.85 mg/dL | 51.89% | 80.3% | 3.72 | 24.02% | Non-toxic | 43.4 µM | 74.57% | 52.21% | Non-toxic | 71.85% | Non-toxic | Activity (Rattus norvegicus [21]): 98.21 U/ml; Activity (Rattus norvegicus [22]): 56.29 mg; Activity (Rattus norvegicus [23]): Non-toxic; inhibition (INH) (Rattus norvegicus [24]): 36.5%; Activity (Rattus norvegicus [25]): Non-toxic; Activity (Rattus norvegicus [26]): 1.87 g/dL; Activity (Rattus norvegicus [27]): Non-toxic; inhibition (INH) (Rattus norvegicus [28]): 41.76%; inhibition (INH) (Rattus norvegicus [29]): 58.83% |
| O=c1nc(-c2ccccc2)c(-c2ccccc2)nn1Cc1nnc(-c2ccc([N+](=O)[O-])cc2)o1 | 89.33% | 41.78% | 52.27% | Non-toxic | 45.9% | 32.01% | 12.26% | 19.92 U | 39.24 mg/dL | 49.6% | 78.4% | 3.71 | 19.98% | Non-toxic | 44.8 µM | 78.04% | 49.7% | Non-toxic | 74.84% | Non-toxic | Activity (Rattus norvegicus [21]): 102.38 U/ml; Activity (Rattus norvegicus [22]): 58.07 mg; Activity (Rattus norvegicus [23]): Non-toxic; inhibition (INH) (Rattus norvegicus [24]): 36.13%; Activity (Rattus norvegicus [25]): Non-toxic; Activity (Rattus norvegicus [26]): 1.83 g/dL; Activity (Rattus norvegicus [27]): Non-toxic; inhibition (INH) (Rattus norvegicus [28]): 41.42%; inhibition (INH) (Rattus norvegicus [29]): 55.96% |
| COc1ccc(-c2nnc(Cn3nc(-c4ccccc4)c(-c4ccccc4)nc3=O)o2)cc1 | 88.2% | 41.05% | 52.71% | Non-toxic | 45.78% | 30.02% | 13.71% | 22.11 U | 40.62 mg/dL | 48.11% | 76.7% | 3.56 | 18.24% | Non-toxic | 44.9 µM | 74.38% | 49.34% | Non-toxic | 70.21% | Non-toxic | Activity (Rattus norvegicus [21]): 103.17 U/ml; Activity (Rattus norvegicus [22]): 58.51 mg; Activity (Rattus norvegicus [23]): Non-toxic; inhibition (INH) (Rattus norvegicus [24]): 35.14%; Activity (Rattus norvegicus [25]): Non-toxic; Activity (Rattus norvegicus [26]): 1.87 g/dL; Activity (Rattus norvegicus [27]): Non-toxic; inhibition (INH) (Rattus norvegicus [28]): 38.71%; inhibition (INH) (Rattus norvegicus [29]): 55.25% |
| O=c1nc(-c2ccccc2)c(-c2ccccc2)nn1Cc1nnc(-c2ccc(O)cc2O)o1 | 94.3% | 43.97% | 57.56% | Non-toxic | 52.44% | 31.26% | 19.19% | 19.56 U | 38.67 mg/dL | 53.27% | 80.8% | 3.46 | 24.71% | Non-toxic | 43.3 µM | 75.21% | 54.25% | Non-toxic | 72.4% | Non-toxic | Activity (Rattus norvegicus [21]): 99.35 U/ml; Activity (Rattus norvegicus [22]): 56.11 mg; Activity (Rattus norvegicus [23]): Non-toxic; inhibition (INH) (Rattus norvegicus [24]): 37.61%; Activity (Rattus norvegicus [25]): Non-toxic; Activity (Rattus norvegicus [26]): 1.82 g/dL; Activity (Rattus norvegicus [27]): Non-toxic; inhibition (INH) (Rattus norvegicus [28]): 44.47%; inhibition (INH) (Rattus norvegicus [29]): 59.07% |
| O=c1nc(-c2ccccc2)c(-c2ccccc2)nn1Cc1nnc(-c2ccc(Cl)cc2)o1 | 92.02% | 43.36% | 55.47% | Non-toxic | 48.87% | 30.02% | 17.58% | 20.28 U | 42.28 mg/dL | 51.32% | 78.2% | 3.91 | 22.98% | Non-toxic | 44.2 µM | 75.85% | 51.98% | Non-toxic | 73.26% | Non-toxic | Activity (Rattus norvegicus [21]): 107.18 U/ml; Activity (Rattus norvegicus [22]): 57.8 mg; Activity (Rattus norvegicus [23]): Non-toxic; inhibition (INH) (Rattus norvegicus [24]): 35.28%; Activity (Rattus norvegicus [25]): Non-toxic; Activity (Rattus norvegicus [26]): 1.8 g/dL; Activity (Rattus norvegicus [27]): Non-toxic; inhibition (INH) (Rattus norvegicus [28]): 39.28%; inhibition (INH) (Rattus norvegicus [29]): 57.64% |
